Measurements reported in patent publication US20080145313A1, “Compositions and Methods for the Treatment and Prevention of Neoplastic Disorders” (Genesis Research & Development Corporation Limited, priority 2006, published 2008).
Read-outs that look alike come from different tables or passages of the source.

Tests used:
A549 tumors = assay: Uptake of Alexa 555-labeled siRNA into A549 tumor cells in vivo after intratumoral injection; parameters: species or system mouse; conditions: 25 μg i.t.
Experimental: An Alexa 555-labeled control siRNA was used to determine the cellular uptake of siRNA in tumor tissues when given via intratumoral (i.t.) injection. A549 cells (6−8×10^6 cells) were s.c. inoculated into CD-1 nude mice. Once the A549 tumors reached a size of approximately 100 mm^3, mice were divided into two groups of four mice each. The Alexa 555-labeled Stealth™ siRNA (SEQ ID NO: 5111 (DNA), and SEQ ID NO: 5300 (RNA); Invitrogen Corp.) at a dose of 25 μg (in 50 μl) was injected into tumors of one group. 50 μl PBS was injected into tumors of a negative control group. Tumors were harvested at 6 and 24 h after injection and placed in a labeled cryomold (Tissue-TeK® Crymold®; ProSciTech, Thuringowa, Queensland, Australia) and covered with OCT tissue freezing medium (O.C.T. Compound, ProSciTech). The mold was gently submerged in liquid nitrogen for approximately one minute until OCT turned white and opaque. Tissues were stored at minus 80° C. until sections were cut. Tissues were allowed to reach −20° C. before processing in a Leica Cryostat (Leica Microsystems, Inc., Bannockburn Ill.) at 10 microns. Sections were picked up on Super Frost Plus slides (Esco, Biolab Scientific, New Zealand). After air-drying, sections were fixed in freshly prepared 2% paraformaldehyde solution for 2 minutes at room temperature and then rinsed in PBS to remove the fixative. The slides were mounted in Prolong Gold antifade reagent with DAPI (Molecular Probes®, Invitrogen Corp.), covered with cover slips and sealed to the slides with clear nail polish. The slides were stored at 4° C. in the dark. Fluorescence in the tumor samples was visualized using a Zeiss Axioskop Microscope (Carl Zeiss microimaging, Inc., Thornwood N.Y.) and Leica SP-2 Confocal Microscope (Leica Microsystems, Inc.). Autofluorescence in tumor tissues was very low in all filters examined (green, red and UV). […]

A549 xenograft tumor = assay: Xenograft tumor growth of A549 cells transfected with siRNA pre-implantation in CD-1 nude mice; assay type: in vivo, mouse
Experimental: To determine the effect of RRM1 knockdown on tumor growth, A549 cells (human lung cancer cell line; ATCC No. CCL-185) were reverse-transfected prior to implantation in CD-1 nude mice. In 175 cm^2 culture flasks, 10×10^6 A549 cells (in RPMI supplemented with 10% fetal calf serum) were added to pre-made lipoplexes. To make lipoplexes, Lipofectamine RNAiMAX in serum-free RPMI was added to an equal volume of serum-free RPMI containing siRNA (RRM1-2; SEQ ID NO: 4831 (DNA), and SEQ ID NO: 5137 (RNA)) and a control siRNA (SEQ ID NO: 4804 (DNA), and SEQ ID NO: 5301 (RNA)). After addition of cells, the final concentration of siRNA in the flask was 10 nM. Untransfected cells served as a further control. Flasks were incubated at 37° C. for 24 h to allow transfection to proceed.
The cells were harvested by trypsinization 24 h after the transfection, washed twice in PBS and viable cells were counted. Equal numbers of cells (1×10^7) were inoculated into CD-1 nude mice (n=7-9). Briefly, 5 to 7 weeks old nude mice were subcutaneously (s.c.) injected in the right flank with A549 cells in 100 μl PBS. Tumor growth was monitored 3 times per week by measuring tumor sizes using a digital caliper. Tumor volume was expressed in […] using the formula: V=a^2×b×0.52, where a and b represent the minimum and maximum tumor diameter, respectively. Mean tumor volumes calculated from each measurement were then plotted in a standard graph to compare the tumor growth of transfected cells to that of control.
To determine the effect of siRNA-mediated knockdown of HK-II, CAD, IMPDH2, RRM2, SLC16A1 and SLC29A1 on tumor growth, A549 cells (human lung cancer cell line; ATCC No. CCL-185) were reverse-transfected prior to implantation in CD-1 nude mice as described above with siRNAs given in SEQ ID NO: 5307 (DNA), and SEQ ID NO: 5304 (RNA) for RRM2, SEQ ID NO: 4932 (DNA), and SEQ ID NO: 5227 (RNA) for ENT1, SEQ ID NO: 4813 (DNA), and SEQ ID NO: 5119 (RNA) for HK-II, SEQ ID NO: 4827 (DNA), and SEQ ID NO: 5133 (RNA) for CAD, SEQ ID NO: 4879 (DNA), and SEQ ID NO: 5182 (RNA) for IMPDH2 and SEQ ID NO: 4924 (DNA), and SEQ ID NO: 5219 (RNA) for SLC16A1, respectively. The siRNA given in SEQ ID NO: 4804 (DNA), and SEQ ID NO: 5301 (RNA) was used as control.
In two separate experiments, CD-1 mice were divided into five groups that received untransfected A549 cells, cells transfected with control siRNA or three different siRNAs (as listed above), respectively. Cells were transfected in vitro using the method as described in Example 8, and 24 h after transfection, s.c. inoculated into mice. Tumor growth was measured 3 times per week. In the first experiment, mice received cells transfected with siRNA targeting RRM2, HK-II or SLC29A1 and were monitored for 33 days. In the second experiment, mice received cells transfected with siRNA targeting CAD, IMPDH2 or SLC16A1, and were monitored for 26 days. […] Similarly, preliminary data indicated tumor growth rate was reduced for the groups receiving cells transfected with siRNA targeting CAD and SLC16A1. Twenty-six days after cell inoculation, the tumor volume for mice with cells transfected with siRNA targeting CAD or SLC16A1 was 97.2±7.3 mm^3 or 110.1±28.1 mm^3, respectively.

A549 xenografted tumors = assay: Intratumoral siRNA treatment of established A549 tumors in CD-1 nude mice; assay type: in vivo, mouse
Experimental: A549 cells (6−8×10^6 cells) were s.c. inoculated into CD-1 nude mice as described above. When tumors reached an average volume of approximately 100 mm^3, the tumor-bearing mice were randomly assigned into three different treatment groups (RRM1 siRNA, control siRNA and PBS) with 5 to 6 mice in each group. There were no significant differences in tumor volumes among groups prior to the initiation of treatments. Mice were anesthetized by gaseous isoflurane and 50 μl siRNA or PBS was injected directly into tumors using a 30-gauge needle. Two experiments were conducted. In the first experiment (IT#1), the animals received a dose of 50 μg of siRNA in each intratumoral (i.t.) injection and the injections were performed 3 times per week for 2 weeks. In the second experiment (IT#2), 25 μg siRNA was used and mice were injected 3 times per week for 3 weeks. The tumor volume was determined immediately before each injection by perpendicular measurements of the shortest and longest diameters as described above.

A549 cells [1] = assay: MTT cell proliferation assay of A549 cells transfected with thymidylate synthase siRNA; assay type: cell-based, human; conditions: 6, 12 and 50 nM siRNA; 72 h
Experimental: siRNA mediated silencing in Human A549 cells A549 cells (ATCC No. CCL-185), a human lung cancer cell line, were cultured in RPMI 1640 medium with 5% v/v dialyzed fetal calf serum. Cells were seeded at a density of 2×10^4 cells/100 μl in 96-well plates. Stealth™ siRNA duplexes targeting the thymidylate synthase (SEQ ID NO: 23) gene were transfected at concentrations of 6, 12, and 50 nM into the A549 cells using Lipofectamine 2000 transfection reagent (Invitrogen). After 72 h, cell viability was assessed by measuring cell proliferation using a standard MTT assay (Mosman, J. Immunol. Methods 65:55-63, 1983).

A549 cells [2] = assay: Growth inhibition of siRNA-transfected A549 cells, SYBR Green I DNA content; assay type: cell-based, human; conditions: 10 nM siRNA; DNA content 96 hours after transfection
How it was run: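 A549 cells reverse-transfected with 10 nM Stealth siRNAs via Lipofectamine RNAiMAX, seeded at 5×10^3 cells/cm^2 in RPMI 1640/10% FCS; non-specific siRNA control. DNA content read 96 h post-transfection by SYBR Green I fluorescence (ex 485/em 535 nm) after freeze-thaw and Triton X-100 lysis; mean of three wells.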

HCT-116 cells = assay: 5FU toxicity in HCT-116 cells after TYMS or DHFR knockdown, SYBR Green; assay type: cell-based; conditions: cells transfected with 0.1 nM siRNA; 5FU continuous for 3 days; read-out: IC50 value of 5FU following TYMS knockdown, HCT-116
Experimental: (§1) HCT-116 and A549 cells were transfected as described above with 0.1, 1.0 and 10 nM of three TYMS-specific siRNAs, labeled TYMS-1, TYMS-2 and TYM-3 (SEQ ID NO: 4833-4835 (DNA), and SEQ ID NO: 5139-5141 (RNA), or 1.0 and 10 nM control siRNAs (809-ctrl; SEQ ID NO: 4805 (DNA), and SEQ ID NO: 5302 (RNA) and 81ctrl; SEQ ID NO: 4804 (DNA), and SEQ ID NO: 5301 (RNA)). HCT-116 and A549 cells were also similarly transfected with 0.1, 1.0 and 10 nM of three DHFR-specific siRNAs, labeled DHFR-1, DHFR-2 and DHFR-3 (SEQ ID NO: 4836-4838 (DNA), and SEQ ID NO: 5142-5144 (RNA)), or control siRNA (SEQ ID NO: 4805 (DNA), and SEQ ID NO: 5302 (RNA)). Twenty four hours after transfection, cells were exposed to 5FU using a serial dilution starting at 44 μM, in medium containing either 10% normal FCS or 10% dialyzed FCS as described above. 5FU treatment was continuous for 3 days, at which time cell growth was analyzed by measuring DNA content per well using the SYBR Green assay outlined above. […] This combinatorial inhibitory effect was further increased when experiments were done in medium containing dialyzed FCS (FIGS. 27D-F; FIGS. 28D-F).
(§2) FIGS. 29 and 30 show transfection with DHFR siRNA similarly led to a dose-dependent increase in growth inhibition above that caused by the drug alone (control siRNA-transfected cells) in HCT-116 cells (FIGS. 29A-C), and A549 cells (FIGS. 30A-C). This combinatorial inhibitory effect was further increased when experiments were done in medium containing dialyzed FCS (FIGS. 29D-F; FIGS. 30D-F). The changes in the IC50 value for 5FU in HCT-116 and A549 cells following TYMS knockdown by individual siRNAs are listed in Table 16 below.

A549 cells [3] = assay: 5FU toxicity in A549 cells after TYMS or DHFR knockdown, SYBR Green; assay type: cell-based, human; conditions: 5FU continuous for 3 days, read-out: IC50 value of 5FU following TYMS knockdown, A549
Experimental: as §1, §2

Alexa 555-labeled siRNA: Alexa 555-labeled control Stealth siRNA (Invitrogen) (chain 1 CCGCAACAACGCCATCTATGAGAAA; chain 2 CCGCAACAACGCCAUCUAUGAGAAA; Alexa 555 label, position not given here, Stealth siRNA, chemistry not given here; one strand in two spellings)
cellular uptake of siRNA in tumor tissue (fluorescence) (A549 tumors; 6 h after injection): red punctuations were seen in some tumor cells, indicative of uptake of siRNA
intracellular localization of siRNA fluorescence (A549 tumors; 6 h after injection, overlay with DAPI): located in the cytoplasm around the periphery of the nuclei
cellular uptake of siRNA in tumor tissue (fluorescence) (A549 tumors; 24 h after injection): also observed in the samples taken 24 h after injection, although in slightly lower number of cells

SEQ ID NO: 4804: non-specific control siRNA against an irrelevant target (chain 1 AGCAGAGGGAATTCATCTCTCAGGC; chain 2 AGCAGAGGGAAUUCAUCUCUCAGGC; chemistry not given here; one strand in two spellings) [reference compound]
average tumor size (A549 xenograft tumor; six weeks after the cell inoculation, 10 nM siRNA pre-implantation): 370.7±63.8 mm^3
average tumor size (A549 xenograft tumor; thirty-three days after the cell inoculation, preliminary data): 172.3±36.1 mm^3
tumor volume (A549 xenograft tumor; twenty-six days after cell inoculation, preliminary data): 154.3±23.7 mm^3
average tumor volume (A549 xenografted tumors; IT#1: 50 μg i.t. 3 times per week for 2 weeks, day 15 after treatment initiation): 238.7±41.4 mm^3
tumor volume (A549 xenografted tumors; IT#2: 25 μg i.t. 3 times per week for 3 weeks, day 21 post-treatment initiation): 248.9±37.3 mm^3

SEQ ID NO: 4833: siRNA targeting TYMS (chain 1 AGCAGAGGGAATTCATCTCTCAGGC; chain 2 AGCAGAGGGAAUUCAUCUCUCAGGC; chemistry not given here; one strand in two spellings)
cell growth (MTT assay) (A549 cells [1]): dose-dependent inhibition of cell growth
Growth Inhibition in A549 cells (A549 cells [2]): + (inhibits by at least 50%)
IC50 (HCT-116 cells): 100 nM
IC50 (A549 cells [3]; cells transfected with 0.1 nM siRNA): 340 nM
IC50 (A549 cells [3]; cells transfected with 1 nM siRNA): 110 nM
IC50 (A549 cells [3]; cells transfected with 10 nM siRNA): 140 nM
